Here are results for one compound from patent publication US20250344698A1, “A METHOD OF CONTROLLING WEEDS” (SYNGENTA CROP PROTECTION AG, priority 2022, published 2025).

In this assay the test system is A. tuberculatus, about 60-70% of which contain the ΔG210 mutation. Briefly: Field trial, Illinois USA, visual % weed control. To be noted: visually assessed 14 days after application. Type of assay: in vivo, Amaranthus tuberculatus.

For the compound `COC(=O)CCNC(=O)C(C)Sc1cc(-n2c(=O)cc(C(F)(F)F)n(C)c2=O)c(F)cc1Cl` (stereo not drawn) [Tiafenacil], the “Control (%)” value runs as follows: (use rate 50 g ai/ha) 33%; (use rate 100 g ai/ha) 30%; (use rate 150 g ai/ha) 33%.
